Results taken from patent publication US10357035B2, “Microbiocidal anilide derivatives” (SYNGENTA PARTICIPATIONS AG, priority 2015, dated 2019).

| Compound | melting point [°C] |
| --- | --- |
| COc1ccnc(C(=O)Nc2ccc(OC3CCCCC3)cc2)c1O [I.b.66, N-[4-(cyclohexoxy)phenyl]-3-hydroxy-4-methoxy-pyridine-2-carboxamide] | 114 to 117 |
| CC1(C)CCC(Oc2ccc(NC(=O)c3cccc4ncoc34)c(F)c2)CC1 [I.r.133, N-[4-(4,4-dimethylcyclohexoxy)-2-fluoro-phenyl]-1,3-benzoxazole-7-carboxamide] | 130 to 132 |
